Source: patent US20240294529A1, “6H-IMIDAZO[1,2-A]PYRROLO[2,3-E]PYRIDINE DERIVATIVES FOR USE IN THERAPY” (SANOFI, priority 2021, published 2024)

Assays:
Nurr1 = molecular target: T1, Nurr1 (Mus musculus, UniProt Q06219); test: Activity on neuroblastomas cell lines - Nurr1 modulation (N2A cells, NBRE8x luciferase reporter); type: cell-based; conditions: N2A cells stably transfected with NBRE8x-luciferase, 24 hours with compound; read-out: EC50 activity, Nurr1 modulation in N2A neuroblastoma cells
T1 construct: N2A cells obtained from ATCC were stably transfected with NBRE8x (50-AAGGTCA-30) in tandem coupled with luciferase reporter gene; host or cells: N2A neuroblastoma cells
T1 sequence (Q06219 whole entry): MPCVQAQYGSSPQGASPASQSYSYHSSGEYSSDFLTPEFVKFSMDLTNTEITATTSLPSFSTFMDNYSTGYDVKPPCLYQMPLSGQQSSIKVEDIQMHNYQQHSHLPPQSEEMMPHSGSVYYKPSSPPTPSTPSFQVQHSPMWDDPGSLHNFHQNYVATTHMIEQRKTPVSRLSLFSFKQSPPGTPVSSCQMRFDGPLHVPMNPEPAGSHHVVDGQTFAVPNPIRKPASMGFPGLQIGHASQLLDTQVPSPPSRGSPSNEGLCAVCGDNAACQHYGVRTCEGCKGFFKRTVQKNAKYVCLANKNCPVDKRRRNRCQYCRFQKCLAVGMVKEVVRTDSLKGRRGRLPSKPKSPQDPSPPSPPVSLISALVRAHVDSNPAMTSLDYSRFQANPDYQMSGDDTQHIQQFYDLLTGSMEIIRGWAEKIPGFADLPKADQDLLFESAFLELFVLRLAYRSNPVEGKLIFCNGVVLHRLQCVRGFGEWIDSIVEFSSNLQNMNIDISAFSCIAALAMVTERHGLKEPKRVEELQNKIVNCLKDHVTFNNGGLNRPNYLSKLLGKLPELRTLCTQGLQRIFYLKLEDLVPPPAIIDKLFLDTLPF
Experimental: N2A cells obtained from ATCC were stably transfected with NBRE8x (50-AAGGTCA-30) in tandem coupled with luciferase reporter gene. Each NBRE sequence was separated with 5 nucleotides. N2A were grown in 75 cm^2 flask in DMEM containing 10% calf serum, 4.5 g/L glucose and 0.4 mg/ml geneticin. After one week in culture cells were harvested by trypsinization (0.25%, 30 minutes) then plated onto 96 well dishes at the density of 60,000 cell per well in 75 μl of DMEM without phenol red containing 4.5 g/l glucose, 10% lipid free serum from Hyclone. After 24 hours compounds were added (25 μl/well) at different concentration for further 24 hours. Measurement is performed by adding 100 μl of Steadylite per well for 30 minutes and plates are read using microplate […] reader.

hNur77 = molecular target: T2, hNur77 (Homo sapiens, UniProt P22736); test: Activity on HEK-Nur77 modulation (Gal4-DBD luciferase reporter in stable HEK293 cells); type: cell-based; conditions: 24 hours with compound
T2 construct: The pFR-Luc (Gal4 UAS luciferase) reporter sits in the same cells, and expression is induced by doxycycline
T2 sequence (P22736 360-598 limits assumed): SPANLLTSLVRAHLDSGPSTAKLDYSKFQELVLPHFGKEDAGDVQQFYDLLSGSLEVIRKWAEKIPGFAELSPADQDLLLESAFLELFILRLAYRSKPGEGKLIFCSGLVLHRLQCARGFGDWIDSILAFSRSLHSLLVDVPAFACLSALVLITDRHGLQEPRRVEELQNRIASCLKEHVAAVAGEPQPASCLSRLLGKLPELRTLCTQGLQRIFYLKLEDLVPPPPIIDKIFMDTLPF
Experimental: Stable HEK293 cells expressing Gal4-DBD-FL-NOT, -hNur77, -hNOR1 and Pfr-Luc were obtained by limit dilution. HEK cells were grown in 75 cm^2 flask in DMEM high glucose 30-2002™ containing 10% calf serum, hygromycin at a content of 250 μg/ml, doxycyclin at a content of 2 μg/ml (to induce expression) and 0.4 mg/ml of penicillin. After one week in culture, cells were harvested by trypsinization then plated onto 96 well dishes at the density of 20,000 cell per well in 75 μl of culture medium. After 24 hours compounds were added (25 μl per well) at different concentration for further 24 hours. The medium was removed and measurement was performed by adding 50 μl of Steadyglo (Promega, E2510) with 50 μl PBS per well for 15 minutes and plates were read using microplate luminescent reader.

EC50 (Nurr1) [nM]	IC50 (hNur77) [nM]	melting point [°C]	SMILES
0.2	10000	252	Clc1ccc(-c2nc3ccc4[nH]ccc4n3c2Cl)cc1 [compound of formula (1), 1-Chloro-2-(4-chlorophenyl)-6H-imidazo[1,2-a]pyrrolo[2,3-e]pyridine]
0.03	300	–	Clc1ccc(-c2cn3c(ccc4[nH]ccc43)n2)cc1 [compound of formula (2), 2-(4-Chlorophenyl)-6H-imidazo[1,2-a]pyrrolo[2,3-e]pyridine]
